Read-outs that look alike come from different tables or passages of the source.

In data set [1] the test system is U937 cells.
Procedure: (§1) The U937 and THP-1 cell lines were seeded, 20 000 cells per well, in 96-well-plates. 50 μl medium ( ) was added to each well. At the same time test compounds were added in 5 different concentrations and incubated for 48 hours. The CellTiter 96® Non-Radioactive cell proliferation assay (Promega) was used to study the cytotoxicity of test in these cells. This assay is a colorimetric method for determining the number of viable cells in proliferation or chemosensitivity assays. […] MTS is bioreduced by cells into a formazan product that is soluble in tissue culture medium. The absorbance of the formazan at 490 nm can be measured directly from 96 well assay plates without additional processing.
The subject of data set [2] is THP-1 cells.
Procedure: as §1
The test system of data set [3] is U937 cells. The data set is described as follows: CellTiter 96 MTS cytotoxicity in U937 cells. As to conditions: U937, 48 hours; for IC50: read-out: U937 cells IC50 μM ± SD, MTS.
Procedure: as §1
Data set [4] relates to THP-1 cells. The data set is described as follows: CellTiter 96 MTS cytotoxicity in THP-1 cells. As to conditions: THP-1, 48 hours; for IC50: read-out: THP-1 cells IC50 μM ± SD, MTS.
Procedure: as §1
For data set [5], the system named is several cell lines. Particulars: prior art references; cited from earlier work.
Data set [6] relates to MaTu/Adr cells. As to the kind of experiment: in-vitro activity in breast tumour line MaTu and adriamycin resistant subline MaTu/Adr. As to conditions: MaTu/Adr vs. MaTu. Type of data set: cell-based.
Data set [7] concerns HeLa/mut cells. The data set is described as follows: MTT growth inhibition in cervical cancer cell line HeLa/mut. Type of data set: cell-based, human. Particulars: for IC50: 4 days incubation, MTT, read-out: IC50 μM ± Standard Deviation. The protocol:
The cervical cancer cell line HeLa/mut was seeded, 5×10^3 cells per well, in 96-well-plates. The medium was RMPI 1640 with 2 mM Glutamine and 10% Foetal Bovine Serum. 24 hours later the test compounds were added in 6 concentrations. The cells were incubated for 4 days. The MTT solution was added to each well and incubated for 4 hours. The samples were read by an ELISA reader at 540 nm. The IC50 values were determined from growth curves. The test compounds were troxacitabine elaidic amid, troxacitabine petroselaidoate, troxacitabine-petroselaidic amide and troxacitabine γ-linolenoate.

Consider `CCCCC/C=C\C/C=C\C/C=C\CCCCC(=O)Nc1ccn([C@@H]2CO[C@H](CO)O2)c(=O)n1` [Troxacitabine N^4-6,9,12-linolenic acid amide], for which the cytotoxicity in words entry in data set [1] and in data set [2] was “even more active than the other compounds” in each case. The half-maximal inhibitory concentration (IC50) was determined as 0.007 µM in data set [3] and 0.085 µM in data set [4].
For `CCCCCCCCCCC/C=C\CCCCC(=O)OC[C@H]1OC[C@@H](n2ccc(N)nc2=O)O1` [Troxacitabine-2′-hydroxymethyl-petroselinoate], the cytotoxicity in words result in data set [3] and in data set [4] was “even more active than the other compounds” each time. For the same compound, the IC50 in data set [3] stood at 0.007 µM; in data set [4], 0.09 µM.
Regarding `CCCCCCCC/C=C/CCCCCCCC(=O)OC[C@H]1OC[C@@H](n2ccc(N)nc2=O)O1` [Troxacitabine-5′-elaidic acid ester, reference compound], the IC50 in data set [3] and in data set [4] was 0.06 µM in each case.
Turning to `CCCCCCCCC=CCCCCCCCC(=O)OCC1OCC(n2ccc(N)nc2=O)O1` (stereo not drawn) [Troxacitabine-5′-oleate, reference compound], the values for the IC50 in data set [3] and in data set [4] were 0.09 µM and 0.07 µM, respectively.
On to `CCCCCCCCC=CCCCCCCCC(=O)Nc1ccn(C2COC(CO)O2)c(=O)n1` (stereo not drawn) [oleic acid amid derivative], for which the “times better than the elaidic counterpart” value in data set [5] is given as 2 to 5 times.
With `CCCCCCCC/C=C/CCCCCCCC(=O)Nc1ccn([C@@H]2CO[C@H](CO)O2)c(=O)n1` [troxacitabine elaidic-amide, Troxacitabine N^4-Elaidic Acid Amide], in data set [6], the resistance factor is 6.
With `CCCCCCCCCCC/C=C/CCCCC(=O)OC[C@H]1OC[C@@H](n2ccc(N)nc2=O)O1` [troxacitabine petroselaidoate, Troxacitabine-2′-hydroxymethyl-petroselaidoate], the IC50 turned out to be 0.18 ± 0.12 µM in data set [7], 0.08 µM in data set [3] and 0.06 µM in data set [4]. Further, in data set [7] (relative to troxacitabine elaidic amide), the “fold more active than troxacitabine elaidic amid” value is on record as 20 fold.
In the case of `CCCCC/C=C\C/C=C\C/C=C\CCCCC(=O)OC[C@H]1OC[C@@H](n2ccc(N)nc2=O)O1` [troxacitabine γ-linolenoate, Troxacitabine 2′-hydroxymethyl-6,9,12-linolenoate], the IC50 in data set [7] was found to be 0.83 ± 0.59 µM; in data set [3], 0.09 µM; in data set [4] it was 0.16 µM.
`CCCCCCCCCCC/C=C/CCCCC(=O)Nc1ccn([C@@H]2CO[C@H](CO)O2)c(=O)n1` [troxacitabine-petroselaidic amide, Troxacitabine N^4-petroselaidic acid amide]: the half-inhibitory concentration (IC50) turned out to be 0.15 ± 0.07 µM in data set [7], 0.02 µM in data set [3] and 0.08 µM in data set [4].
Regarding `CCCCCCCCCCC/C=C\CCCCC(=O)Nc1ccn([C@@H]2CO[C@H](CO)O2)c(=O)n1` [troxacitabine-petroselinic amide, Troxacitabine N^4-petroselinic acid amide], the cytotoxicity in words result in data set [3] and in data set [4] was “even more active than the other compounds” in each case.
Turning to `CCCCCCCC/C=C/CCCCCCCC(=O)Nc1ccn(C2COC(CO)O2)c(=O)n1` (stereo not drawn) [α-troxacitabine N4-elaidic acid amide, reference compound], in data set [3], the IC50 amounted to 10 µM.

One may read the IC50 as the concentration that gives 50% inhibition.

(Values after patent US8349834B2, “Dioxolane derivates for the treatment of cancer” (Clavis Pharma AS, priority 2005, dated 2013).)
